{
  "source": "paper PMC5743070",
  "about": "(The Journal of Biological Chemistry, 2017)",
  "key": {"TTD–PHD (UHRF1_126–366)": {"biological_target": "T1, TTD–PHD (UHRF1_126–366) (Homo sapiens, UniProt Q96T88)", "T1 construct": "His tag (TEV-cleavable) (N); made in house", "T1 sequence (Q96T88 126-366)": "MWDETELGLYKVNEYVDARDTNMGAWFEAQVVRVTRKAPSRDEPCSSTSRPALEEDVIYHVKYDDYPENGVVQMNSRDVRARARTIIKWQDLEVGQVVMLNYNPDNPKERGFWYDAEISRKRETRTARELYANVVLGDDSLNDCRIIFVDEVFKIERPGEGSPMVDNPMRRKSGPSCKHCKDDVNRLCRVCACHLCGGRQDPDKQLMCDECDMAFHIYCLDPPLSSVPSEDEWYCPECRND", "assay": "(1H-15N) TROSY NMR titration of TTD–PHD", "type": "binding", "description": "Exchange broadening is clearly observed for Arg^282, Gly^284, Asp^291, Asn^292, Met^294, and Ser^301 amide resonances at 1:3 protein/BPC ratios, with perturbations also seen with Gly^286 and Gly^299 (Fig. 4 and supplemental Fig. S6).\n(§1) NMR samples were buffered in 20 mM sodium phosphate (pH 7.5), 150 mM NaCl, 5 mM DTT, 5 mM β-mercaptoethanol, 2 mM TCEP, and 10 μM ZnSO4. The protein concentration was between 200 and 300 μM for all samples. The data were collected at 25 °C on Bruker spectrometers equipped with cryoprobes and operating at 500, 600, or 800 MHz. The assignment of backbone TTD–PHD resonances was accomplished using the ABACUS method ([29]) for which standard backbone and ^15N-edited NOESY spectra were collected using ^15N/^13C/^2H- or ^15N/^13C-labeled protein. All 3D experiments were acquired using non-uniform sampling and processed using the software MDDGUI ([30]) or qMDD ([31]). ^15N-Labeled TTD–PHD was used to acquire ^15N T1 and T2 relaxation and ^1H-^15N heteronuclear NOE measurements ([32]) collected using standard Bruker pulse schemes in an interleaved manner. For T1 measurements, the variable delay was set to 0.1, 0.4, 0.8, 1.5, 2.0, 2.5, 3.5, and 5 s. For T2 measurements, the variable delay was set to 16, 32, 48, 64, 80, 96, 128, and 144 ms. The D1 was 3 s for all experiments. Reported values were the average from two measurements. All spectra were processed using NMRPipe ([33]) and analyzed with SPARKY ([34])."}, "PHD": {"system": "PHD", "assay": "NMR titration of PHD with BPC", "type": "binding", "description": "as §1, with “([34]). […]” for “([34]).”\ntrated by the perturbation of I211, I212 and E281 resonances in HSQC spectra of the TTD in a competition assay. […]"}},
  "data": [
    {"compound": "N=C(N)N1CCC(Cc2ccccc2)CC1", "note": "[BPC, 4-benzylpiperidine-1-carboximidamide]", "values": [
      {"measurement": "effect on linker resonances of TTD–PHD", "setting": "TTD–PHD (UHRF1_126–366); (1H-15N) TROSY, ~250 μM protein/750 μM ligand", "result": "significant conformational broadening and/or movement of amide peaks"},
      {"measurement": "effect on TTD–PHD conformation", "setting": "TTD–PHD (UHRF1_126–366); Fig. 4", "result": "promote open TTD–PHD conformations"},
      {"measurement": "effect on PHD resonances", "setting": "PHD; 3 mM BPC, 5% DMSO (12:1)", "result": "unaffected"},
      {"measurement": "interaction with PHD", "setting": "PHD; separate NMR titration with PHD", "result": "no interaction"}
    ]}
  ]
}
